Measured values: patent US7943611B2, “Imidazo[1,2-A]pyridin-3-yl-acetic acid hydrazides, processes, for their preparation and pharmaceutical uses thereof” (Ferrer International, S.A., priority 2006, dated 2011)

Columns and labels:
[1] = molecular target: T1, α1-subunit of the GABAA receptor (Rattus norvegicus, UniProt P62813); assay: Ligand-binding assay, radiolabeled flumazenil competition, cerebellum membranes; conditions: 1 nM radiolabeled flumazenil; for inhibition at 10 µM: 10^−5 M test compound, read-out: % Inhib 10^−5M (affinity for the α1-subunit of the GABAA receptor); for inhibition at 0.1 µM: 10^−7 M test compound, read-out: % Inhib 10^−7M (affinity for the α1-subunit of the GABAA receptor)
T1 construct: the cerebellum (tissue that mostly contains α1-GABAA receptor); from tissue; host or cells: rat cerebellum membranes
Experimental: (§1) a) Ligand-Binding Assays. Determination of the Affinity of Test Compounds for α1- and α2-GABAA Receptor
(§2) Male Sprague-Dawley rats weighing 200-250 g at the time of experiment were used. After decapitation of the animal, the cerebellum (tissue that mostly contains α1-GABAA receptor) and spinal cord (tissue that mostly contains α2-GABAA receptor) were removed. The membranes were prepared according to the method by J. Lameh et al. (Prog. Neuro-Psychopharmacol. Biol. Psychiatry, 24, 979-991, 2000) and H. Noguchi et al. (Eur J Pharm, 434, 21-28, 2002) with slight modifications. Once the tissues weighed, they were suspended in 50 mM Tris.HCl (pH 7.4), 1:40 (v/v), or sucrose 0.32 M in the case of spinal cord, homogenized and then centrifuged at 20,000 g for 10 min at 7° C. The resulting pellet was resuspended under the same conditions and centrifuged again. The pellet was finally resuspended on a minimum volume and kept at −80° C. overnight. On the next day, the process was repeated until the final pellet was resuspended at a ratio of 1:10 (v/v) in the case of cerebellum and at a ratio of 1:5 (v/v) in the case of spinal cord.
(§3) Affinity was determined by competitive tests using radiolabeled flumazenil as ligand. The tests were performed according to the methods described by S. Arbilla et al. (Eur. J. Pharmacol., 130, 257-263, 1986); and Y. Wu et al. (Eur. J. Pharmacol., 278, 125-132, 1995) using 96-well microtiter plates. The membranes containing the study receptors, flumazenil (radiolabeling at a final concentration of 1 nM) and ascending concentrations of test compounds (in a total volume of 230 μl in 50 mM [pH 7.4] Tris.HCl buffer) were incubated. Simultaneously, the membranes were only incubated with the radiolabeled flumazenil (total binding, 100%) and in the presence of an elevated concentration of unradiolabeled flumazenil (non-specific binding, % estimation of radiolabeled ligand). The reactions started on adding the radiolabeled ligand followed by incubation for 60 minutes at 4° C. At the end of the incubation period, 200 μl of reaction were transferred to a multiscreen plate (Millipore) and filtered using a vacuum manifold and then washed three times with cold test buffer. The multiscreen plates were equipped with a GF/B filter that retained the membranes containing the receptors and the radiolabeled ligand which had been bound to the receptors. After washing, the plates were left till dry. Once dried, scintillation liquid was added and left under stirring overnight. The next day the plates were counted using a Perkin-Elmer Microbeta scintillation counter.
(§4) For analysis of the results the percentage of specific binding for every concentration of test compound was calculated as follows: % specific binding=(X−N/T−N)×100 where, • X: amount of bound ligand for every concentration of compound. • T: total binding, maximum amount bound to the radiolabeled ligand. • N: non-specific binding, amount of radiolabeled ligand bound in a non-specific way irrespective of the receptor used.
(§5) Every concentrations of compound were tested in triplicate and their mean values were used to determine the experimental values of % specific binding versus the concentration of compound. Affinity data are expressed as % inhibition at 10^−5 M and 10^−7 M concentrations.

[2] = test system: spontaneous motor activity in mice; assay: In vivo predictive sedation-hypnosis test (spontaneous motor activity, traveled distance); parameters: species or system mouse; conditions: for % Motor activity inhibition: male CD1 mice, single equimolecular intraperitoneal dose, traveled distance vs control over 30 min (first 5 min discarded); for ID50 inhibiting spontaneous motor activity: dose-response curve, intraperitoneal
Experimental: b) In Vivo Determination of Predictive Sedative-Hypnotic Action
The in vivo effects of these compounds were assessed by a predictive sedation-hypnosis test in mice (D. J. Sanger et al., Eur. J. Pharmacol., 313, 35-42, 1996; and G. Griebel et al., Psychopharmacology, 146, 205-213, 1999).
Groups of 5-8 male CD1 mice, weighing 22-26 g at the time of test, were used. The test compounds were administered in single equimolecular intraperitoneal doses, suspended in 0.25% agar with one drop of Tween in a volume of 10 mL/kg. Control animals received the vehicle alone. Using a Smart System (Panlab, S. L., Spain) the traveled distance in cm was recorded for each mouse at 5 min intervals during a period of 30 minutes after dosing. The inhibition percentage traveled distance of treated animals versus control animals (the first 5 min were discarded) was calculated.

[3] = test system: α2-subunit of the GABAA receptor; assay: Ligand-binding assay, radiolabeled flumazenil competition, spinal cord membranes; conditions: rat spinal cord membranes, 1 nM radiolabeled flumazenil; for % Inhib 10^−5M (affinity for the α2-subunit of the GABAA receptor): 10^−5 M test compound; for % Inhib 10^−7M (affinity for the α2-subunit of the GABAA receptor): 10^−7 M test compound
Experimental: as §1, §2, §3, §4, §5

Cc1ccc(-c2nc3ccc(C)cn3c2CC(=O)NN)cc1 [Example 3, (6-Methyl-2-p-tolyl-imidazo[1,2-a]pyridin-3-yl)-acetic Acid Hydrazide]
inhibition at 10 µM [1]: 98.7%
inhibition at 0.1 µM [1]: 55.9%
% Motor activity inhibition [2]: 92.03%
ID50 inhibiting spontaneous motor activity ([2]; mice): 1.9 µmol/kg
fold greater potency in inhibiting spontaneous motor activity compared to zolpidem ([2]; mice, from ID50 values): 2 fold

Cc1ccc(-c2nc3ccc(C)cn3c2CC(=O)N(C)N)cc1 [Example 6, (6-Methyl-2-p-tolyl-imidazo[1,2-a]pyridin-3-yl)-acetic Acid N-methyl-hydrazide]
inhibition at 10 µM [1]: 99%
inhibition at 0.1 µM [1]: 59.1%
% Inhib 10^−5M (affinity for the α2-subunit of the GABAA receptor) [3]: 71.6%
% Inhib 10^−7M (affinity for the α2-subunit of the GABAA receptor) [3]: 2.0%
% Motor activity inhibition [2]: 93.42%

Cc1ccc(-c2nc3ccc(C)cn3c2CC(=O)N/N=C/c2ccc(Cl)cc2)cc1 [Example 7, (6-Methyl-2-p-tolyl-imidazo[1,2-a]pyridin-3-yl)-acetic Acid (4-chlorobenzylidene)-hydrazide]
inhibition at 10 µM [1]: 46.1%
inhibition at 0.1 µM [1]: 0.9%
% Motor activity inhibition [2]: 25.05%

C/C=N/NC(=O)Cc1c(-c2ccc(C)cc2)nc2ccc(C)cn12 [Example 8, (6-Methyl-2-p-tolyl-imidazo[1,2-a]pyridin-3-yl)-acetic Acid Ethylidene-hydrazide]
inhibition at 10 µM [1]: 97.6%
inhibition at 0.1 µM [1]: 25.2%
% Inhib 10^−5M (affinity for the α2-subunit of the GABAA receptor) [3]: 88.6%
% Inhib 10^−7M (affinity for the α2-subunit of the GABAA receptor) [3]: 11.2%
% Motor activity inhibition [2]: 90.16%

CC(C)=NNC(=O)Cc1c(-c2ccc(C)cc2)nc2ccc(C)cn12 [Example 9, (6-Methyl-2-p-tolyl-imidazo[1,2-a]pyridin-3-yl)-acetic acid isopropylidene-hydrazide]
inhibition at 10 µM [1]: 98.5%
inhibition at 0.1 µM [1]: 24.2%
% Inhib 10^−5M (affinity for the α2-subunit of the GABAA receptor) [3]: 86.6%
% Inhib 10^−7M (affinity for the α2-subunit of the GABAA receptor) [3]: 21.9%
% Motor activity inhibition [2]: 92.03%

Cc1ccc(-c2nc3ccc(C)cn3c2CC(=O)N(C)C)cc1 [Zolpidem, N,N,6-trimethyl-2-p-tolylimidazo[1,2-a]pyridine-3-acetamide, reference compound]
inhibition at 10 µM [1]: 73.6%
% Inhib 10^−5M (affinity for the α2-subunit of the GABAA receptor) [3]: 74.1%
% Inhib 10^−7M (affinity for the α2-subunit of the GABAA receptor) [3]: 19.9%
% Motor activity inhibition [2]: 91.70%
ID50 inhibiting spontaneous motor activity ([2]; mice): 4.4 µmol/kg
